According to patent US12630529B2, “GCN2 modulator compounds” (ALESTA THERAPEUTICS BV, priority 2020, dated 2026):

test system: CHOP (DDIT3) reporter; test: GCN2-induction of CHOP and apoptosis in 3T3 fibroblasts with CHOP (DDIT3) reporter construct; assay type: cell-based, murine; conditions: murine 3T3 WT and GCN2 knockout CHOP reporter cells, stress inducer alone
Protocol: The CHOP construct comprised the […] (UTR) of mouse DDIT3 mRNA fused to a sequence encoding the fluorescent protein mCherry.
Cells were seeded at 5,000 cells per well in flat bottom 96-well plates in 100 μL DMEM low glucose media without phenol red, and supplemented with 10% FBS and 2 mM glutamine. After 24 hours, the exemplary compounds, and either tunicamycin, halofuginone, or histidinol, were added together with 100 nM of fluorescent apoptosis stain (YO-PRO™-1 Iodide; Thermo Fisher) to detect apoptotic cells. Cells were placed in a live-cell imaging and analysis platform (IncuCyte ZOOM®; Essenbio) set up in a humidified incubator at 37° C. and the plates were scanned every 4 hours for up 120 hours, at 10× magnification, to determine cell confluence and cell death. Experiments were performed in duplicate with 3 images collected per well, and analyzed using live-cell imaging and analysis software (IncuCyte ZOOM® 2018A software; Essenbio).

With tunicamycin [reference compound] as the compound, how does the “induction of CHOP (mCherry)” value read?
The value was “significant induction of CHOP in both the WT and GCN2 knockout cell lines”.

For `N[C@H](CO)Cc1c[nH]cn1` [histidinol, L-histidinol, reference compound], which “induction of CHOP (mCherry)” value is on record?
The value was “induction of CHOP (mCherry) could be observed in the WT cells, but not in the GCN2 knockout cells”.

For `O=C(CC1NCCCC1O)Cn1cnc2cc(Br)c(Cl)cc2c1=O` (stereo not shown) [halofuginone, reference compound], which “induction of CHOP (mCherry)” value is on record?
Its value is “induction of CHOP (mCherry) could be observed in the WT cells, but not in the GCN2 knockout cells”.

target: T1, GCN2 (Mus musculus, UniProt Q9QZ05); test: GCN2 inhibition cell-based assay (P-GCN2 Western blot in Neuro 2a cells); conditions: amino acid deprived media (DMEM lacking L-cysteine and methionine), 3 hours
T1 construct: endogenous in cells; host or cells: Neuro 2a (N2a)
T1 sequence (Q9QZ05 whole entry): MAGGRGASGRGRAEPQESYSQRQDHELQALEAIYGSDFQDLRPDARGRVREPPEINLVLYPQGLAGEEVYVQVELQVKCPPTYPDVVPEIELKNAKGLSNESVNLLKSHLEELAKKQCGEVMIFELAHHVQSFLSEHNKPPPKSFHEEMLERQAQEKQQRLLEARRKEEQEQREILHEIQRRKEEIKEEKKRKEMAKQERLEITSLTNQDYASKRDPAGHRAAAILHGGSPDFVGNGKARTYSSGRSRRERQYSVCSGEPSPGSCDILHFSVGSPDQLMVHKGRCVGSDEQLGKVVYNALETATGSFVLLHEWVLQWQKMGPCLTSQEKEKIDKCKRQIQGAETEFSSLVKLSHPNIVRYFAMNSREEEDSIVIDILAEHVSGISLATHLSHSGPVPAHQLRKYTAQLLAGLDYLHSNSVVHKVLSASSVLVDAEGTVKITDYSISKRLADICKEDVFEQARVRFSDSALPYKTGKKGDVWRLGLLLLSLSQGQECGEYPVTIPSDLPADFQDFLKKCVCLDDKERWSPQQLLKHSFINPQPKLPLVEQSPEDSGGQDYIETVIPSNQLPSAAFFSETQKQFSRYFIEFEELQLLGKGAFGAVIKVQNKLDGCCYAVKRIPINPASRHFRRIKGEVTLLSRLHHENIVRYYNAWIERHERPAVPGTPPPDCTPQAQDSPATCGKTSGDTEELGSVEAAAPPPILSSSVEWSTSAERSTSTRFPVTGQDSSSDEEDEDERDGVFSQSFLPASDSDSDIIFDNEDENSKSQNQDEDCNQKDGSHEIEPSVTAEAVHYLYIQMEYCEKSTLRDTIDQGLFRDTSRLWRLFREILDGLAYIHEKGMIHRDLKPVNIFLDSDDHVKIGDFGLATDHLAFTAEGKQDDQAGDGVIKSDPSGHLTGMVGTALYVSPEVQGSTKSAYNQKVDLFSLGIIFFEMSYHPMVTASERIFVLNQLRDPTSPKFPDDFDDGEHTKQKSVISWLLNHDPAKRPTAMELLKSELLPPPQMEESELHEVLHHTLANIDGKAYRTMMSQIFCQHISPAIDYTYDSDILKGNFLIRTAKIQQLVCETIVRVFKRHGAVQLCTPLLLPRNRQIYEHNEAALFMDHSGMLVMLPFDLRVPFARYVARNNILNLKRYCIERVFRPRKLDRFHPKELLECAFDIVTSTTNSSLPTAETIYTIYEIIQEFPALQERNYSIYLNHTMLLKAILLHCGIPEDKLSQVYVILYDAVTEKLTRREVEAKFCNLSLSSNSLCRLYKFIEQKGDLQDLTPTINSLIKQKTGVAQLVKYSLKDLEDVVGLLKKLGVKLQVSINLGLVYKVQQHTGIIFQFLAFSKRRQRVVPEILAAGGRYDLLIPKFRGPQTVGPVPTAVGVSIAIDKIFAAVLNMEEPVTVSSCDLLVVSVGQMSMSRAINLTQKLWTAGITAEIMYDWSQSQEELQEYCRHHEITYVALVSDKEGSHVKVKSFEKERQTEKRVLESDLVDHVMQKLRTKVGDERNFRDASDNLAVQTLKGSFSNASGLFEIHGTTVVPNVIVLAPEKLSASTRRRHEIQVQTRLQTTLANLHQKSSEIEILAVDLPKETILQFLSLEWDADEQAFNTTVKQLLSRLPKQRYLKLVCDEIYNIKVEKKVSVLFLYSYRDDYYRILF
Protocol: Neuro 2a cells (N2a) were maintained at 37° C. and 5% CO2 in DMEM/F12 medium (Fisher Scientific) supplemented with 10% fetal bovine serum and 1% penicillin-streptomycin (complete medium). 300,000 cells/well were seeded in flat bottom 6 well plates 48 hours before treatment with the compounds.
Testing compounds were prepared at different concentrations ranging from 10 μM to 0.1 nM on DMEM medium lacking L-cysteine and methionine (DMEM-CM) (Gibco) and supplemented with 1% penicillin-streptomycin. Complete medium was used as control of non-stressed condition. After 48 hours, the medium was removed from each well and 2 mL per well of each treatment was added. Cells were treated for 3 hours at 37° C. and 5% CO2.
After the incubation time, each well was washed with sterile 1×PBS and then 100 μL of ice-cold lysis buffer supplemented with phosphatase and protease inhibitors was added. Lysates were transferred to 1.5 mL tubes and sonicated for 3 min, and total protein amounts were quantified using BCA assay (e.g., BCA Protein Assay Kit; Pierce) according to manufacturer instructions. Equal amount of proteins was loaded on SDS-PAGE gels for electrophoresis and then transferred onto 0.2 µm filter pore PVDF membranes.
Membranes were then blocked in blocking buffer containing 3% BSA/0.1% Tween/1×Tris-buffered saline (TBS) for 1 hour and then incubated overnight at 4° C. with agitation with anti-pGCN2 primary antibody (Abcam ab-75836), diluted 1:1,000 in blocking buffer. […] (Sigma Aldrich) was used as a loading control.
Membranes were then incubated with the corresponding secondary antibody to detect immune-reactive bands using enhanced chemiluminescence (e.g., ECL Western Blotting Substrate Pierce).
Images were acquired (e.g., using Chemidoc™ equipment) and quantitated by densitometry using ImageJ software. IC50 values were determined from a concentration-response curve using GraphPad prism software.
IC50 values from P-GCN2 inhibition assay after induction with amino acid deprived media in the presence of different concentrations of test compounds are shown in Table 2. For IC50 values: +++ refers to <10 nM of test compound; ++ refers to 10 nM to 100 nM of test compound; + refers to 100 nM to 1,000 nM of test compound and − refers to >1,000 nM of test compound.
Under GCN2-mediated stress conditions, resulting from an amino acid deprived medium, GCN2 is generally phosphorylated. Accordingly, inhibition of GCN2 phosphorylation as a result of the test compound indicates inhibition of the GCN2 pathway.

How did the IC50 turn out when `COc1ncc(Cl)cc1S(=O)(=O)Nc1ccc(F)c(-c2ccc3cnc(N)nc3c2)c1F` [Compound 6] was run?
Its IC50 is > 1000 nM.

For `COc1ncc(Cl)cc1C(=O)Nc1ccc(F)c(C#Cc2cnc(N)nc2)c1F` [Compound 3], which IC50 is on record?
Its IC50 is > 1000 nM.

How did the IC50 turn out when `COc1ncc(Cl)cc1-c1nnc(-c2ccc(F)c(C#Cc3cnc(N)nc3)c2F)o1` [Compound 7] was run?
Its IC50 is > 1000 nM.

With `O=S(=O)(Nc1ccc(F)c(-c2ccc3nc(N[C@H]4CC[C@H](O)CC4)ncc3c2)c1F)c1cc(Cl)ccc1Cl` [Compound 67] as the compound, how does the IC50 read?
The IC50 was < 10 nM.

Which IC50 does the source give for `Cc1cc(S(=O)(=O)Nc2ccc(F)c(-c3ccc4nc(N)ncc4c3)c2F)ccc1F` [Compound 160] here?
Its IC50 is > 1000 nM.

Which IC50 does the source give for `Nc1ncc2cc(-c3c(F)ccc(NS(=O)(=O)c4cccc(F)c4)c3F)ccc2n1` [Compound 116] here?
The IC50 was > 1000 nM.

`COc1ccc(S(=O)(=O)Nc2ccc(F)c(-c3ccc4nc(N)ncc4c3)c2F)cc1OC` [Compound 115] was tested. Which IC50 did it give?
The IC50 was 10 to 100 nM.

How did the IC50 turn out when `COc1ncc(Cl)cc1S(=O)(=O)Nc1cccc(-c2ccc3nc(N)ncc3c2)c1C` [Compound 51] was run?
Its IC50 is < 10 nM.

How did the IC50 turn out when `COc1ccc(OC)c(S(=O)(=O)Nc2ccc(F)c(-c3ccc4nc(N)ncc4c3)c2F)c1` [Compound 119] was run?
Its IC50 is > 1000 nM.

`COc1ncc(Cl)cc1S(=O)(=O)Nc1ccc(F)c(-c2ccc3nc(N4CCCCC4)ncc3c2)c1F` [Compound 156] was tested. Which IC50 did it give?
The IC50 was 10 to 100 nM.

For `Nc1ncc2cc(-c3c(F)ccc(NS(=O)(=O)c4cc(Cl)ccc4C(F)(F)F)c3F)ccc2n1` [Compound 58], which IC50 is on record?
The IC50 was < 10 nM.

Which IC50 does the source give for `Nc1ncc2cc(-c3c(F)ccc(NS(=O)(=O)c4cc(Cl)cc(C(F)(F)F)c4)c3F)ccc2n1` [Compound 63] here?
The IC50 was 10 to 100 nM.

With `Nc1ncc2cc(-c3c(F)ccc(NS(=O)(=O)C4CCCCC4)c3F)ccc2n1` [Compound 81] as the compound, how does the IC50 read?
Its IC50 is > 1000 nM.

With `COc1ncc(Cl)cc1S(=O)(=O)Nc1ccc(F)c(-c2ccc3nc(N)ncc3c2)c1` [Compound 19] as the compound, how does the IC50 read?
Its IC50 is 100 to 1000 nM.

How did the IC50 turn out when `Cc1c(NS(=O)(=O)c2cc(Cl)ccc2Cl)cccc1-c1ccc2nc(N)ncc2c1` [Compound 11] was run?
Its IC50 is 10 to 100 nM.

How did the IC50 turn out when `CC(C)c1cccc(S(=O)(=O)Nc2ccc(F)c(-c3ccc4nc(N)ncc4c3)c2F)c1` [Compound 141] was run?
The IC50 was > 1000 nM.

Which IC50 does the source give for `Nc1ncc2cc(-c3cccc4c3ccn4S(=O)(=O)c3cc(Cl)ccc3Cl)ccc2n1` [Compound 76] here?
Its IC50 is > 1000 nM.

Which IC50 does the source give for `Nc1ncc2cc(-c3c(F)ccc(NS(=O)(=O)c4cc(Cl)cc(Cl)c4)c3F)ccc2n1` [Compound 59] here?
The IC50 was < 10 nM.

For `Nc1ncc2cc(-c3c(F)ccc(NS(=O)(=O)c4cccc(F)c4F)c3F)ccc2n1` [Compound 124], which IC50 is on record?
Its IC50 is > 1000 nM.

How did the IC50 turn out when `O=S(=O)(Nc1ccc(F)c(-c2ccc3nc(NC4CCOC4)ncc3c2)c1F)c1cc(Cl)ccc1Cl` (stereo not shown) [Compound 168] was run?
The IC50 was < 10 nM.

How did the IC50 turn out when `Nc1ncc2cc(-c3c(F)ccc(NS(=O)(=O)c4cc(F)cc(F)c4)c3F)ccc2n1` [Compound 112] was run?
The IC50 was > 1000 nM.

How did the IC50 turn out when `Nc1ncc2cc(-c3c(F)ccc(NS(=O)(=O)c4cccc5cnccc45)c3F)ccc2n1` [Compound 64] was run?
The IC50 was < 10 nM.

With `Nc1ncc2cc(-c3c(F)ccc(NS(=O)(=O)c4ccc(Cl)c(F)c4)c3F)ccc2n1` [Compound 146] as the compound, how does the IC50 read?
Its IC50 is 100 to 1000 nM.

Which IC50 does the source give for `Nc1ncc2cc(-c3c(F)ccc(NS(=O)(=O)c4ccc(Cl)c(C(F)(F)F)c4)c3F)ccc2n1` [Compound 149] here?
The IC50 was 100 to 1000 nM.

With `Nc1ncc2cc(-c3cccc(NS(=O)(=O)c4cc(Cl)ccc4Cl)c3F)ccc2n1` [Compound 13] as the compound, how does the IC50 read?
The IC50 was < 10 nM.

For `Nc1ncc2cc(-c3c(F)ccc(NS(=O)(=O)c4cc(C(F)(F)F)ccc4C(F)(F)F)c3F)ccc2n1` [Compound 121], which IC50 is on record?
Its IC50 is < 10 nM.

With `COc1ncc(Cl)cc1S(=O)(=O)Nc1ccc(F)c(-c2cccc3nc(N)ncc23)c1F` [Compound 45] as the compound, how does the IC50 read?
Its IC50 is > 1000 nM.

Which IC50 does the source give for `CCc1ccc(OC)c(S(=O)(=O)Nc2ccc(F)c(-c3ccc4nc(N)ncc4c3)c2F)c1` [Compound 120] here?
Its IC50 is > 1000 nM.

For `Nc1ncc2ccc(-c3c(F)ccc(NS(=O)(=O)c4cc(Cl)ccc4Cl)c3F)cc2n1` [Compound 5], which IC50 is on record?
The IC50 was > 1000 nM.

How did the IC50 turn out when `O=S(=O)(Nc1ccc(F)c(-c2ccc3nc(N[C@H]4CC[C@H](O)CC4)ncc3c2)c1F)c1cc(Cl)cc(CO)c1Cl` [Compound 69] was run?
The IC50 was < 10 nM.

How did the IC50 turn out when `O=S(=O)(Nc1ccc(F)c(-c2ccc3nc(N[C@@H](CO)c4ccccc4)ncc3c2)c1F)c1cc(Cl)ccc1C(F)(F)F` [Compound 167] was run?
Its IC50 is 100 to 1000 nM.

Which IC50 does the source give for `COc1ncc(Cl)cc1S(=O)(=O)Nc1ccc(F)c(-c2ccc(-c3cnc(N)nc3)nc2)c1F` [Compound 4] here?
The IC50 was > 1000 nM.

How did the IC50 turn out when `Cc1ccc(S(=O)(=O)Nc2ccc(F)c(-c3ccc4nc(N)ncc4c3)c2F)cc1Cl` [Compound 147] was run?
The IC50 was 100 to 1000 nM.

With `Cc1cccc(S(=O)(=O)Nc2ccc(F)c(-c3ccc4nc(N)ncc4c3)c2F)c1` [Compound 125] as the compound, how does the IC50 read?
The IC50 was > 1000 nM.

`CC(=O)Nc1ncc2cc(-c3c(F)ccc(NS(=O)(=O)c4cc(Cl)ccc4Cl)c3F)ccc2n1` [Compound 106] was tested. Which IC50 did it give?
Its IC50 is < 10 nM.

Which IC50 does the source give for `Nc1ncc2cc(-c3c(F)ccc(NS(=O)(=O)c4ccc5c(c4)CCC5)c3F)ccc2n1` [Compound 161] here?
Its IC50 is > 1000 nM.

`Nc1ncc2cc(-c3c(F)ccc(NS(=O)(=O)c4cccc(C(F)(F)F)c4)c3F)ccc2n1` [Compound 145] was tested. Which IC50 did it give?
Its IC50 is > 1000 nM.

Which IC50 does the source give for `Nc1ncc2cc(-c3c(F)ccc(NS(=O)(=O)c4cc(Cl)c(Cl)cc4Cl)c3F)ccc2n1` [Compound 150] here?
Its IC50 is 10 to 100 nM.

target: GCN2 (Homo sapiens, UniProt Q9P2K8); test: GCN2 enzyme inhibition assay (Reaction Biology EIF2AK4/GCN2 kinase assay); assay type: biochemical; parameters: purchased Reaction Biology Corp; conditions: human GCN2 enzyme activity, 10 μM ATP, 20 μM peptide substrate
Sequence (Q9P2K8 whole entry): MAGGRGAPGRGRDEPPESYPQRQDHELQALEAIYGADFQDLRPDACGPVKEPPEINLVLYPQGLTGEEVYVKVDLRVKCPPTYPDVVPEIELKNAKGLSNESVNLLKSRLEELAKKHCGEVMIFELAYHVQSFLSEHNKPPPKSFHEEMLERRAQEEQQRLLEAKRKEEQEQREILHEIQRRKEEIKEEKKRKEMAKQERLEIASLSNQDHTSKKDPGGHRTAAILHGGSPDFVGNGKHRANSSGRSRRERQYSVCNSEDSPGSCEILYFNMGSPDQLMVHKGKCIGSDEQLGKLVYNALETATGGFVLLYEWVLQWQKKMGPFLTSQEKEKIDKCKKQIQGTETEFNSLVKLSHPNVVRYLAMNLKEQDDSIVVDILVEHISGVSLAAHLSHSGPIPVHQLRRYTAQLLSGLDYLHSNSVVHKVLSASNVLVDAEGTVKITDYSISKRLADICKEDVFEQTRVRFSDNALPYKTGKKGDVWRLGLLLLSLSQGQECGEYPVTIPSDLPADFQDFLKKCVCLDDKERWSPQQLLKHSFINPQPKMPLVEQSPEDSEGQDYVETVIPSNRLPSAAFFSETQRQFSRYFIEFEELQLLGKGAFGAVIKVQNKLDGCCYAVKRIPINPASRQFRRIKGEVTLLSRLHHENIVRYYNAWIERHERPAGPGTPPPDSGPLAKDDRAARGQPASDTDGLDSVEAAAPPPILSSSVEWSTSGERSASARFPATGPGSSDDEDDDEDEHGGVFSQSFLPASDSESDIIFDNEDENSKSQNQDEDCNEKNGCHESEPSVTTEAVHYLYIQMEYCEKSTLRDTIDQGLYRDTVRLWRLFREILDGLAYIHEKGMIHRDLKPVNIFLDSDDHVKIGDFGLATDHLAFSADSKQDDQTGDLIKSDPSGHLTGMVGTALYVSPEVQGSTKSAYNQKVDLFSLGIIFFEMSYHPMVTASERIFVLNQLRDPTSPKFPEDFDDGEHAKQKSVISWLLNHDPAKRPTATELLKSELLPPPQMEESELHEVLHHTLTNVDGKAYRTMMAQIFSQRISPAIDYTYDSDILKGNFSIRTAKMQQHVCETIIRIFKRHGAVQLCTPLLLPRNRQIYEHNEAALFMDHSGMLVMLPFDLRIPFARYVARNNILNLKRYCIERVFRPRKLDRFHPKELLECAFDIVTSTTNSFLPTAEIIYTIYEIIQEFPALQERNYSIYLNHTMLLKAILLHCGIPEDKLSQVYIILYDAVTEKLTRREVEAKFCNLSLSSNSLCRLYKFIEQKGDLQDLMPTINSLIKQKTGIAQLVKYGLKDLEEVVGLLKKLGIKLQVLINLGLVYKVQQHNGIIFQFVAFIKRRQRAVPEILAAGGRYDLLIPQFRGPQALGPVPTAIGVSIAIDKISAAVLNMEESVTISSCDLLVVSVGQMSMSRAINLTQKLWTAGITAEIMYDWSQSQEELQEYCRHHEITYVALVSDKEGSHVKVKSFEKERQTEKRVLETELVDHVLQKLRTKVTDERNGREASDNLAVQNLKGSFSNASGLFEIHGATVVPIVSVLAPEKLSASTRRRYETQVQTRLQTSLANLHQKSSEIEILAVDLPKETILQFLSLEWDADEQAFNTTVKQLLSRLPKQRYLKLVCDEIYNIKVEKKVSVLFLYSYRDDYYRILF
Protocol: In order to validate the above results, human GCN2 enzyme activity was measured in Reaction Biology Corp (EIF2AK4/GCN2 kinase assay). Compounds were tested in 5-dose IC50 mode for non-active compounds and 10-dose IC50 mode for active compounds with 3-fold serial dilution starting at 30 μM and 0.1 μM respectively. Control compound Staurosporine was tested in 10-dose IC50 mode with 4-fold serial dilution starting at 20 μM. Reactions were carried out at 10 μM ATP using 20 μM peptide substrate [GRSRSRSRSR]. For IC50 values: +++ refers to <10 nM of test compound; ++ refers to 10 nM to 100 nM of test compound; + refers to 100 nM to 1,000 nM of test compound and − refers to >1,000 nM of test compound.

`COc1ncc(Cl)cc1S(=O)(=O)Nc1ccc(F)c(-c2ccc3cnc(N)nc3c2)c1F` [Compound 6] was tested. Which IC50 did it give?
Its IC50 is > 1000 nM.

How did the IC50 turn out when `COc1ncc(Cl)cc1C(=O)Nc1ccc(F)c(C#Cc2cnc(N)nc2)c1F` [Compound 3] was run?
The IC50 was > 1000 nM.

For `COc1ncc(Cl)cc1-c1nnc(-c2ccc(F)c(C#Cc3cnc(N)nc3)c2F)o1` [Compound 7], which IC50 is on record?
Its IC50 is > 1000 nM.

How did the IC50 turn out when `Nc1ncc2ccc(-c3c(F)ccc(NS(=O)(=O)c4cc(Cl)ccc4Cl)c3F)cc2n1` [Compound 5] was run?
Its IC50 is > 1000 nM.

Which IC50 does the source give for `COc1ncc(Cl)cc1S(=O)(=O)Nc1ccc(F)c(-c2ccc(-c3cnc(N)nc3)nc2)c1F` [Compound 4] here?
Its IC50 is 100 to 1000 nM.
